ChEMBL document CHEMBL1150356, “Design, synthesis and biological evaluation of substituted pyrrolo[2,3-d]pyrimidines as multiple receptor tyrosine kinase inhibitors and antiangiogenic agents” (Bioorg Med Chem, 2008)

Assays:
[1] = biological target: Epidermal growth factor receptor (Homo sapiens, UniProt P00533); test: Inhibition of EGFR expressed in human tumor cells
[2] = biological target: Vascular endothelial growth factor receptor 1 (Homo sapiens, UniProt P17948); test: Inhibition of VEGFR1 expressed in human tumor cells
[3] = biological target: Platelet-derived growth factor receptor beta (Homo sapiens, UniProt P09619); test: Inhibition of PDGFRbeta expressed in human tumor cells
[4] = organism: Gallus gallus; test: Antiangiogenic activity against fertile leghorn chicken eggs by CAM assay; format: functional, organism-based
[5] = biological target: Vascular endothelial growth factor receptor 2 (Homo sapiens, UniProt P35968)
Description: Inhibition of VEGFR2 expressed in human tumor cells

[6] = tested on: A-431; test: cells; details: Homo sapiens
Description: Cytotoxicity against human A431 cells

Chain of Vascular endothelial growth factor receptor 2 (P35968 whole entry): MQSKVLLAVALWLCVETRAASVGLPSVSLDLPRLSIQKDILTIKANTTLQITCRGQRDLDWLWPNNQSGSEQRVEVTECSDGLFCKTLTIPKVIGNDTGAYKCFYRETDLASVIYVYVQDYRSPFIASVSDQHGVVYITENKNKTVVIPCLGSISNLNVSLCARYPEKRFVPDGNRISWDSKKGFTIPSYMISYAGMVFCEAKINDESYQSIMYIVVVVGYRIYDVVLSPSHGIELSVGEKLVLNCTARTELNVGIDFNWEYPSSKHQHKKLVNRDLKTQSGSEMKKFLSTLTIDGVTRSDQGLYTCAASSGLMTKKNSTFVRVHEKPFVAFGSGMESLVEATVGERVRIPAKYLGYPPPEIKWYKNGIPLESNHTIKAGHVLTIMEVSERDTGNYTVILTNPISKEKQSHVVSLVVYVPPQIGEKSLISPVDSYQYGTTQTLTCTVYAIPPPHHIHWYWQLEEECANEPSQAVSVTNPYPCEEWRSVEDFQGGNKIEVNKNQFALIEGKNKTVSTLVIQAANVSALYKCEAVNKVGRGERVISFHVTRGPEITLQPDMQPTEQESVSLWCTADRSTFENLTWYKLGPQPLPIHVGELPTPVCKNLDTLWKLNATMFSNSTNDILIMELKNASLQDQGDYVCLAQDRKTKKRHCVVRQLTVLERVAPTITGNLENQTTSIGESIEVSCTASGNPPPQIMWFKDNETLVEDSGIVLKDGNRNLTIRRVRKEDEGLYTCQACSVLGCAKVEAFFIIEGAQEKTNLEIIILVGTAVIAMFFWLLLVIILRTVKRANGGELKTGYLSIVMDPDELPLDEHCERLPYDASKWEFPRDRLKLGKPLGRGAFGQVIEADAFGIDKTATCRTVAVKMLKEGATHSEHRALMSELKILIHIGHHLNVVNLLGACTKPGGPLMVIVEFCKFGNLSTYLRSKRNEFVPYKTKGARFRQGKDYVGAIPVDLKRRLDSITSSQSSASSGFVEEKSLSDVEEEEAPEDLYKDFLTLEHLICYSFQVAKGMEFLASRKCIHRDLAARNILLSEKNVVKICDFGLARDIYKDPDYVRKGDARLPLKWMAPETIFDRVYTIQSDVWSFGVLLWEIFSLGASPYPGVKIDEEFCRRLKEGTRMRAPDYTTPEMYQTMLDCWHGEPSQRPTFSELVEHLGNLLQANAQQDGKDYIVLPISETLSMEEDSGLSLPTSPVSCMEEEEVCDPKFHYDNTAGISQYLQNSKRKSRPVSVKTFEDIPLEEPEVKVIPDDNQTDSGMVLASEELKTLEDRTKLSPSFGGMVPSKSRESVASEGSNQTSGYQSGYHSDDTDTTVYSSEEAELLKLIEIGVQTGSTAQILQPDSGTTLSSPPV
Chain of Vascular endothelial growth factor receptor 1 (P17948 whole entry): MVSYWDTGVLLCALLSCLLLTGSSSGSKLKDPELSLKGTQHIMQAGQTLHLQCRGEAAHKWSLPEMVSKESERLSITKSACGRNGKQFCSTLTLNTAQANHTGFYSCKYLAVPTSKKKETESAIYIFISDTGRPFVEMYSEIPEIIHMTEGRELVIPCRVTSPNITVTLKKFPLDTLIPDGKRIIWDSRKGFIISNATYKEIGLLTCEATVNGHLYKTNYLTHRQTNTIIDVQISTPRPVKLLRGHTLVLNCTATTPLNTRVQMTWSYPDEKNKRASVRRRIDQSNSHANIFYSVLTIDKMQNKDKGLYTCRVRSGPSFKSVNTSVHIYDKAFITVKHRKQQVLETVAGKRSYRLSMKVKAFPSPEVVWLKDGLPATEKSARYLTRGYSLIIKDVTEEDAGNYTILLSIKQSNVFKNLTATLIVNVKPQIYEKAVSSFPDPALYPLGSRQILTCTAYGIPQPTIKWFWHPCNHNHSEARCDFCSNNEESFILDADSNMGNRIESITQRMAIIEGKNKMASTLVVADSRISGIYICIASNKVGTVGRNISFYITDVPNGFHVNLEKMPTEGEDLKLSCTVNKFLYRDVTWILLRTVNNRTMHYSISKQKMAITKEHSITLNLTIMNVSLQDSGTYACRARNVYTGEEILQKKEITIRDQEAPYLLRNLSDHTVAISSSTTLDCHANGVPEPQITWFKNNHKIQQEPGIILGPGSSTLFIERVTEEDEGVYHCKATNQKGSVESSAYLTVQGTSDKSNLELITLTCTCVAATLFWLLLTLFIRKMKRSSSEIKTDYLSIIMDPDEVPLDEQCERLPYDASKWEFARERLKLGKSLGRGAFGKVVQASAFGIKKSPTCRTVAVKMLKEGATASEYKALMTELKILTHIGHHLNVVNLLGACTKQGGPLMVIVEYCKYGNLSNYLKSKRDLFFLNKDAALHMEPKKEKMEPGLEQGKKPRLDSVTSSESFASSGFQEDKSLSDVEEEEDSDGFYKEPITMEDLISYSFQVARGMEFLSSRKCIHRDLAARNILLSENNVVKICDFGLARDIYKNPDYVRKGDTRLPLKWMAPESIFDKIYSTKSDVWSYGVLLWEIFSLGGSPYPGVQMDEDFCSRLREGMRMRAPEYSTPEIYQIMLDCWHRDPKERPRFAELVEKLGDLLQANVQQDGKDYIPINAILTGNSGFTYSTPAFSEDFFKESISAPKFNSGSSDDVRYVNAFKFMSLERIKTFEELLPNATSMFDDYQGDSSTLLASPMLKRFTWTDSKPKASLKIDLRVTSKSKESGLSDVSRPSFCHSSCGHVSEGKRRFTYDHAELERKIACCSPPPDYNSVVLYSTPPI
Chain of Platelet-derived growth factor receptor beta (P09619 whole entry): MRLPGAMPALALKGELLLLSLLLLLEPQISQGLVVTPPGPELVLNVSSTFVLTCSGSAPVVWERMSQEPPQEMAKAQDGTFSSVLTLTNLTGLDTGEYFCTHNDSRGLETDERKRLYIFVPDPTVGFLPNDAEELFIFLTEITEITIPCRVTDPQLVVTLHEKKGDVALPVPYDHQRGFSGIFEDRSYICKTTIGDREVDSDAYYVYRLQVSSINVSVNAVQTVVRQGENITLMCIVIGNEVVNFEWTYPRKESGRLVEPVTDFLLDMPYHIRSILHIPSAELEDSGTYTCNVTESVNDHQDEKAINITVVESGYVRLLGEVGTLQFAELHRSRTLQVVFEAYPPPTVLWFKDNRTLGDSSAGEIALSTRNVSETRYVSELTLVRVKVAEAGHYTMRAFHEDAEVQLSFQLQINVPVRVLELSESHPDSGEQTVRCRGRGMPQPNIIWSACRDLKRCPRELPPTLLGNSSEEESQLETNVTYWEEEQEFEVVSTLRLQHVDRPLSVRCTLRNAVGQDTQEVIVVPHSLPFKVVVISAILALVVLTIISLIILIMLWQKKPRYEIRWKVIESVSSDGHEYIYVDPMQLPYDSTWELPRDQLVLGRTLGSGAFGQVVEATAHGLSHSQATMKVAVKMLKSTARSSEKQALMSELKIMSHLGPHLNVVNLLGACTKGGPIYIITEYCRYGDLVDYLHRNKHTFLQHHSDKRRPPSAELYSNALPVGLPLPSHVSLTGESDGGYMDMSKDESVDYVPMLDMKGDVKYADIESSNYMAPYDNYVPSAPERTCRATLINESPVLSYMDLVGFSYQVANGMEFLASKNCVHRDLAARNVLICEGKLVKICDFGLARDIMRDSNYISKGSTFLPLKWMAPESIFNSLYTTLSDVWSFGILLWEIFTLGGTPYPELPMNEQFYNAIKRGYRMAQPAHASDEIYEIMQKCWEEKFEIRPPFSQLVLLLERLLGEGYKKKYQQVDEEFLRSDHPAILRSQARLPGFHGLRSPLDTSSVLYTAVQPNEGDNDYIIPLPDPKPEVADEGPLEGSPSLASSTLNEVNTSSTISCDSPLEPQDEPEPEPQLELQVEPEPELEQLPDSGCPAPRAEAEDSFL
Chain of Epidermal growth factor receptor (P00533 whole entry): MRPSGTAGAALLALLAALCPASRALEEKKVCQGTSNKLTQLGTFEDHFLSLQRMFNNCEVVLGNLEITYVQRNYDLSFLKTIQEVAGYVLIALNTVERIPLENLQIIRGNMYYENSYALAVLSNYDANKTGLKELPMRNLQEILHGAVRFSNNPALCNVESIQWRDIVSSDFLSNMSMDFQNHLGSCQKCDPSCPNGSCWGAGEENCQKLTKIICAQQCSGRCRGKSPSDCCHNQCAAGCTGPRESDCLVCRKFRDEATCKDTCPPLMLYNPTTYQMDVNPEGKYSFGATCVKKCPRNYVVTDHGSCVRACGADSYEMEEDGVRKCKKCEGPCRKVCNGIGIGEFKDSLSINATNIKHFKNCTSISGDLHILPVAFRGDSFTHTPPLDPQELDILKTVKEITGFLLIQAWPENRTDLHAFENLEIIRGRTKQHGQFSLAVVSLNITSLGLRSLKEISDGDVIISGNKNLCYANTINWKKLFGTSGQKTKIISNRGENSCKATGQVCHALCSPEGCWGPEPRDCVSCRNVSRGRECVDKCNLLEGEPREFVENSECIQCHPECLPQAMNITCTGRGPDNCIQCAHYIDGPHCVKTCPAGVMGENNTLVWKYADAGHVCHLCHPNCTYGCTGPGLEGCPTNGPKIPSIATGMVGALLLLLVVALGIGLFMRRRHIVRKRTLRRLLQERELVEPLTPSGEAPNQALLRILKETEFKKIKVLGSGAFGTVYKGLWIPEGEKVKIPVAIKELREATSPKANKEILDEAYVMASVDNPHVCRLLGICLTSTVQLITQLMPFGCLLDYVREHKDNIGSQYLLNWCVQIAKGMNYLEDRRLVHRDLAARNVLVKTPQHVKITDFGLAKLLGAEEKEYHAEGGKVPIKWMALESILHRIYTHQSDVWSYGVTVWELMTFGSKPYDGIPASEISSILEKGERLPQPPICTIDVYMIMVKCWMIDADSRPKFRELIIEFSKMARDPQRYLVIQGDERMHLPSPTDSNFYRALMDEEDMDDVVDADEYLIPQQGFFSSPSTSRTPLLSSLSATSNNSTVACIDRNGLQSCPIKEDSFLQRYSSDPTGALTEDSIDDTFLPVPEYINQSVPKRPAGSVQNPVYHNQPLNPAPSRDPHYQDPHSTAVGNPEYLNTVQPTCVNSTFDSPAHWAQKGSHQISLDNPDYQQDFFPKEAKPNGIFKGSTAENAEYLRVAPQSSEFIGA

Row | SMILES | IC50 [1] [µM] | IC50 [2] [µM] | IC50 [3] [µM] | IC50 [4] [µM] | IC50 [5] [µM] | IC50 [6] [µM]
1 | Nc1nc(Nc2ccc(Cl)cc2)c2cc(CCc3ccccc3)[nH]c2n1 | 3.18 | > 200 | > 500 | 3.3 | > 200 | 1.6
2 | Nc1nc(Nc2ccc(F)c(Br)c2)c2cc(CCc3ccccc3)[nH]c2n1 | > 200 | > 200 | > 500 |  | 198 | 3.4
3 | Nc1nc(Nc2cccc(Br)c2)c2cc(Cc3ccc4ccccc4c3)[nH]c2n1 |  |  | > 50 |  |  | 
4 | Nc1nc(Nc2cccc(Br)c2)c2cc(Cc3cccc4ccccc34)[nH]c2n1 |  |  |  | 0.053 |  | 
5 | Nc1nc(Nc2cccc(Br)c2)c2cc(Cc3ccccc3Cl)[nH]c2n1 |  |  | > 50 | 1.7 |  | 
6 | COc1ccc(CCc2cc3c(Nc4cccc(Br)c4)nc(N)nc3[nH]2)cc1 | 2.2 | 31.8 | > 50 | 21.1 | > 50 | > 50
7 | Nc1nc(Nc2cccc(Br)c2)c2cc(CCc3ccc4ccccc4c3)[nH]c2n1 | 4.7 | 7.8 | 13.7 | 18.9 | 16.8 | > 50
8 | Nc1nc(Nc2ccc(F)c(Cl)c2)c2cc(CCc3ccccc3)[nH]c2n1 | 22.8 | > 200 | > 500 | 5.9 | 132 | 6.8
9 | Nc1nc(Nc2cccc(Br)c2)c2cc(CCc3ccccc3Cl)[nH]c2n1 | 3.4 | 32.7 | > 50 | 10.1 | 42.3 | 13.2
10 | Nc1nc(Nc2cccc(C(F)(F)F)c2)c2cc(CCc3ccccc3)[nH]c2n1 | > 200 | > 200 | > 500 |  | > 200 | 
11 | Nc1nc(Nc2ccc(Cl)cc2F)c2cc(CCc3ccccc3)[nH]c2n1 | 1.32 | > 200 | > 500 |  | > 200 | 
12 | C#Cc1cccc(Nc2nc(N)nc3[nH]c(CCc4ccccc4)cc23)c1 | > 200 | > 200 | 100 |  | > 200 | 
13 | Nc1nc(Nc2cccc(Br)c2)c2cc(Cc3ccccc3)[nH]c2n1 |  |  | > 50 |  |  | 
14 | Nc1nc(Nc2cccc(Br)c2)c2cc(CCc3cccc4ccccc34)[nH]c2n1 | 4.8 | 11.2 | 11 | 15.2 |  | 8.2
15 | Nc1nc(Nc2cccc(Br)c2)c2cc(CCc3ccccc3)[nH]c2n1 | 0.3 | 45.1 | 11.8 | 19.5 | > 50 | 
16 | Nc1nc(Nc2ccc(F)c(C(F)(F)F)c2)c2cc(CCc3ccccc3)[nH]c2n1 | 122 | > 200 | 90 |  | > 200 | 
17 | Nc1nc(Nc2ccc3[nH]ccc3c2)c2cc(CCc3ccccc3)[nH]c2n1 | > 200 | > 200 | 77.4 |  | 24.9 | 
